This is an account of results in patent publication US20250367184A1, “CYP11A1 INHIBITOR FOR USE IN THE TREATMENT OF PROSTATE CANCER” (ORION CORPORATION, priority 2021, published 2025).

Assay [1] deals with Patients with progressive mCRPC. The assay can be described thus: Clinical study of compound (1A) in progressive mCRPC patients: PSA change from baseline by activating AR gene alteration status. Format: in vivo, human. Particulars: for subjects with PSA decline of ≥50% (PSA response): oral 10-150 mg daily with corticosteroids, on ADT, prior ARSi. The source says: Patients with progressive mCRPC were enrolled in the clinical trial to study the effect of a CYP11A1 inhibitor 2-(isoindolin-2-ylmethyl)-5-((1-(methylsulfonyl)-piperidin-4-yl)methoxy)-4H-pyran-4-one (1A). The patients were on ADT therapy and had previously received androgen receptor signalling inhibitor (ARSi) therapy and chemotherapy, or were ineligible for chemotherapy. Five different daily dose levels of compound (1A) with dexamethasone and fludrocortisone were given orally to 27 patients in the dose escalation/de-escalation part. Corticosteroid doses were allowed to be adjusted during the trial based on the subject's clinical condition. The daily doses were 10 mg (5 mg b.i.d), 30 mg (15 mg b.i.d.), 50 mg (25 mg b.i.d), 100 mg (50 mg b.i.d.), and 150 mg (75 mg b.i.d.). In a separate dosing evaluation part, once daily dosing of 25 mg of compound (1A), and two different glucocorticoid replacement therapies, hydrocortisone and prednisone, were evaluated in 14 patients. Subjects were allowed to continue the therapy until disease progression or intolerable toxicity. Anti-tumour activity was determined by measuring change in the PSA (prostate-specific antigen) value in PSA evaluable patient population (n=37, at least 4-week value available). A decrease in the PSA value indicates anti-tumour activity. PSA response in a patient was defined as at least 50% decline from the baseline PSA value.
Existence of activating AR-LBD somatic point mutations and AR gene amplification were analysed in plasma cfDNA samples obtained from the patients using the OncoBEAM® prostate cancer digital PCR assay panel (Sysmex Inostics, Inc.) and Guardant360 CDx (Guardant Health, Inc) assay panel. The assay panels were utilized to test the existence of activating AR-LBD point mutations including L702H, V716M, V716L, W742C, W742L, H875Y, F877L, T878A, T878S, D891Y, M896T and M896V.

Assay [2] has the same test system. The assay can be described thus: Clinical study of compound (1B) in progressive mCRPC patients: PSA change from baseline by activating AR gene alteration status. The class given is in vivo, human. Particulars: for subjects with PSA decline of ≥50% (PSA response): oral 10-20 mg daily with corticosteroids, on ADT, prior ARSi. The source says:
Patients with progressive mCRPC were enrolled in the clinical trial to study the effect of a CYP11A1 inhibitor 2-5-((1-(methylsulfonyl)piperidin-4-yl)methoxy)-2-((5-(trifluoromethyl) isoindolin-2-yl)methyl)-4/-pyran-4-one (1B). The patients were on ADT therapy and had previously received androgen receptor signalling inhibitor (ARSi) therapy and chemotherapy, or were ineligible for chemotherapy. Three different daily dose levels of compound (1B) with hydrocortisone and fludro-cortisone were given orally to 13 subjects in the dose escalation part. Corticosteroid doses were allowed to be adjusted during the trial based on the subject's clinical condition. The daily doses were 10 mg (10 mg q.d), 15 mg (15 mg q.d) and 20 mg (20 mg q.d). In a separate dosing evaluation part, twice daily dosing of 5 mg and 10 mg of compound (1B), and different glucocorticoid replacement therapy, dexamethasone, and different hydrocortisone dosing regimen were evaluated in 16 patients. Subjects were allowed to continue the therapy until disease progression or intolerable toxicity. Anti-tumour activity was determined by measuring change in the PSA (prostate-specific antigen) value. A decrease in the PSA value indicates anti-tumour activity. PSA response in a patient was defined as at least 50% decline from the baseline PSA value.
Existence of activating AR-LBD somatic point mutations and AR gene amplification were analysed in plasma cfDNA samples obtained from the patients using the OncoBEAM® prostate cancer digital PCR assay panel (Sysmex Inostics, Inc.) and Guardant360 CDx (Guardant Health, Inc) assay panel. The assay panels were utilized to test the existence of activating AR-LBD mutations including L702H, V716M, V716L, W742C, W742L, H875Y, F877L, T878A, T878S, D891Y, M896T and M896V.

On to `CS(=O)(=O)N1CCC(COc2coc(CN3Cc4ccccc4C3)cc2=O)CC1` [1A, 2-(isoindolin-2-ylmethyl)-5-((1-(methylsulfonyl)piperidin-4-yl)methoxy)-4H-pyran-4-one], for which, in assay [1] (12 out of 13 PSA responders), the “subjects with a PSA response (decline of ≥50%) that were activating AR gene alteration positive” value was determined as 92.3%. In addition, the “subjects with PSA decline of ≥50% (PSA response)” value is listed as 70.6% in assay [1] (subjects with activating AR gene alteration (12 out of 17)) and 5.0% in assay [1] (subjects without an activating AR gene alteration (1 out of 20)). Further, the “anti-tumour activity (PSA change) in subjects with versus without activating AR gene alteration” value in assay [1] (with alteration n=17 compared to without n=20) is listed as “substantially higher”.
For the compound `CS(=O)(=O)N1CCC(COc2coc(CN3Cc4ccc(C(F)(F)F)cc4C3)cc2=O)CC1` [1B, 5-((1-(methylsulfonyl)piperidin-4-yl)methoxy)-2-((5-(trifluoromethyl)isoindolin-2-yl)methyl)-4H-pyran-4-one], the “subjects with a PSA response (decline of ≥50%) that were activating AR gene alteration positive” value in assay [2] (6 out of 6 PSA responders) is recorded as 100%. Besides, the “subjects with PSA decline of ≥50% (PSA response)” value stood at 35.3% in assay [2] (subjects with activating AR gene alteration (6 out of 17)) and 0% in assay [2] (subjects without an activating AR gene alteration (0 out of 8)). Also, in assay [2] (with alteration n=17 compared to without n=8), the “anti-tumour activity (PSA change) in subjects with versus without activating AR gene alteration” value is on record as “substantially higher”.
